The text below walks through data of the supplement of paper PMC4862054.

What all share (conditions): 72 h
Assay [1] concerns MDA-MB-468. On the procedure: (§1)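 Drug sensitivity and resistance testing (DSRT) of breast cancer cell lines in 384-well plates, 5 concentrations in 10-fold dilutions over a compound-specific 10,000-fold range. After 72 h, cytotoxicity was read by CellTox Green fluorescence and viability by CellTiter-Glo luminescence (multiplexed), normalised to DMSO and benzethonium chloride controls. EC50 is the inflection point of the fitted dose-response curve (bottom asymptote free, so it can be relative for partial curves) and is censored at the highest tested concentration. Rows with DSS 0 (no meaningful response) were excluded.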

Assay [2] relates to CAL-120. How it is done: as §1
Assay [3] has as its system CAL-51. The essentials: (§2)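 For viability and cell death testing, 384-well plates carried compound at 5 concentrations in 10-fold steps over a compound-specific 10,000-fold range, and breast cancer cell lines were seeded in 20 µl suspension. After 72 h incubation, cell death was read by CellTox Green fluorescence (485/520 nm) before viability was read by CellTiter-Glo luminescence. EC50 was fitted from the dose-response curves and censored at the top concentration. Normalisation on each plate was to 0.1 % DMSO and a positive kill control.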

Assay [4] deals with HCC1937. The gist of the method: (§3)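 After 72 h on 384-well plates pre-loaded with compound in 5 µl medium, breast cancer cell lines seeded in 20 µl were assayed for viability with 2.5 µl CellTiter-Blue at 37 °C for 2 h, read at 560/590 nm. Each plate was quality-checked by Z'-factor and normalised to vehicle and a positive kill control. EC50 comes from the fitted percent-inhibition dose-response curve, censored at the top concentration, and rows scoring zero for drug sensitivity were left out.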

Assay [5] relates to CAL-51. On the procedure: as §1
The source holds these as a separate data set.

Assay [6] relates to CAL-51. The essentials:
as §3
This is another data set of the same source.

Assay [7] deals with Hs578T. The essentials: as §3
Assay [8] concerns MDA-MB-436. The essentials: as §3
For assay [9], the system named is MDA-MB-468. The essentials:
as §3
The source holds these as a separate data set.

Assay [10] concerns BT-549. The essentials: as §3
In assay [11] the test system is MDA-MB-436. On the procedure:
as §1
This is another data set of the same source.

The subject of assay [12] is MDA-MB-436. The essentials: as §2
This is another data set of the same source.

Assay [13] concerns BT-549. The essentials: as §2
This is another data set of the same source.

Assay [14] concerns HCC1599. The essentials: as §2
Assay [15] relates to CAL-148. How it is done: as §1
For assay [16], the system named is Hs578T. The essentials:
as §2
The source holds these as a separate data set.

The test system of assay [17] is SK-BR-3. The essentials: as §2
Assay [18] deals with HCC1143. The essentials:
as §2

The subject of assay [19] is CAL-148. The essentials: as §2
This is another data set of the same source.

The subject of assay [20] is DU-4475. The essentials:
as §2

Assay [21] relates to HCC1937. The essentials: as §2
This is another data set of the same source.

In assay [22] the test system is MFM-223. The gist of the method: as §3
The test system of assay [23] is HCC1143. The gist of the method:
as §3
The source holds these as a separate data set.

Assay [24] deals with BT-474. The essentials: as §3
Assay [25] concerns Hs578T. How it is done:
as §1
The source holds these as a separate data set.

The subject of assay [26] is HDQ-P1. On the procedure:
as §1

The subject of assay [27] is MFM-223. On the procedure:
as §1
The source holds these as a separate data set.

Assay [28] relates to HCC1143. On the procedure: as §1
The source holds these as a separate data set.

For assay [29], the system named is CAL-85-1. On the procedure:
as §1

Assay [30] deals with HCC1937. How it is done:
as §1
This is another data set of the same source.

For assay [31], the system named is MDA-MB-231. On the procedure:
as §1

Assay [32] concerns MCF-10A. On the procedure:
as §1

Assay [33] concerns BT-549. On the procedure:
as §1
The source holds these as a separate data set.

Assay [34] concerns BT-474. How it is done:
as §1
This is another data set of the same source.

Assay [35] relates to HDQ-P1. The essentials:
as §3
This is another data set of the same source.

Assay [36] deals with MDA-MB-453. The gist of the method:
as §3

Assay [37] concerns CAL-85-1. The essentials: as §3
This is another data set of the same source.

The test system of assay [38] is CAL-148. The essentials:
as §3
The source holds these as a separate data set.

The subject of assay [39] is DU-4475. The gist of the method: as §3
The source holds these as a separate data set.

In assay [40] the test system is MFM-223. The gist of the method: as §2
This is another data set of the same source.

Assay [41] deals with MDA-MB-453. The gist of the method:
as §2
The source holds these as a separate data set.

Assay [42] relates to CAL-85-1. The essentials:
as §2
The source holds these as a separate data set.

Assay [43] has as its system MDA-MB-231. The gist of the method:
as §2
The source holds these as a separate data set.

The subject of assay [44] is MCF-10A. The gist of the method:
as §2
The source holds these as a separate data set.

Assay [45] deals with CAL-120. The essentials: as §2
This is another data set of the same source.

Some results are limits rather than exact numbers.

Regarding `CC1(C)CCC(CN2CCN(c3ccc(C(=O)NS(=O)(=O)c4ccc(NCC5CCOCC5)c([N+](=O)[O-])c4)c(Oc4cnc5[nH]ccc5c4)c3)CC2)=C(c2ccc(Cl)cc2)C1` [ABT-199], the “EC50, CellTox Green” value in [1] is 3.5 nM; in assay [2] it was above 10000 nM. The “EC50, CellTiter-Glo” value in assay [3] turned out to be 702 nM.

Take `O=C1CN2Cc3c(ccc(Cl)c3Cl)N=C2N1` [Anagrelide]: the entries for the “EC50, CellTiter-Blue viability” value in [4] and in assay [6] were 398 nM and 77.5 nM, respectively. Also, the “EC50, CellTox Green” value in [5] came to 30.6 nM. For the same compound, in assay [3], the “EC50, CellTiter-Glo” value was above 10000 nM.

With `Nc1ncn([C@@H]2O[C@H](CO)[C@@H](O)[C@H]2O)c(=O)n1` [Azacitidine], the “EC50, CellTiter-Blue viability” value is 6120 nM in assay [7]; 1060 nM in assay [8]; 650 nM in assay [9]; above 10000 nM in [4]; 2570 nM in [10]. Also, the “EC50, CellTox Green” value in assay [11] is above 10000 nM; in assay [1] it was 595 nM. The “EC50, CellTiter-Glo” value in assay [12] amounted to 1120 nM; in assay [13] it was 1280 nM; in assay [14], 1290 nM.

Consider `CC(=O)N(O)CCCCCNC(=O)CCC(=O)N(O)CCCCCNC(=O)CCC(=O)N(O)CCCCCN` [Deferoxamine], for which the entries for the “EC50, CellTox Green” value in assay [15] and in [5] were 221 nM and 1900 nM, respectively. The “EC50, CellTiter-Glo” value in assay [16] is 2660 nM; in assay [17], 6450 nM; in assay [18], 832 nM; in assay [12], 1570 nM; in assay [19], 1920 nM; in [20] it was 3480 nM. Also, the “EC50, CellTiter-Glo” value in assay [21] is 696 nM; in assay [3], 6360 nM; in assay [13], 852 nM; in assay [14] it was 3970 nM.

Regarding `CC(=O)O[C@@]12CO[C@@H]1C[C@H](O)[C@@]1(C)C(=O)[C@H](O)C3=C(C)[C@@H](OC(=O)[C@H](O)[C@@H](NC(=O)OC(C)(C)C)c4ccccc4)C[C@@](O)([C@@H](OC(=O)c4ccccc4)[C@H]21)C3(C)C` [Docetaxel], the “EC50, CellTiter-Blue viability” value in assay [7] was determined as 1.36 nM; in assay [22], 2.57 nM; in assay [23], 1.71 nM; in assay [8], 2.53 nM; in assay [9], 0.808 nM; in assay [4] it was 1.02 nM. Besides, the “EC50, CellTiter-Blue viability” value in assay [10] came out at 1.03 nM; in assay [24], 6.71 nM; in assay [35] it was 1.39 nM; in [36], 2.02 nM; in [37], 2.27 nM; in [38], 1.85 nM. In addition, the “EC50, CellTiter-Blue viability” value was 2.52 nM in [39] and 4.62 nM in assay [6]. Further, the “EC50, CellTox Green” value in [25] stood at 4.24 nM; in [26] it was 123 nM; in assay [27], 12.2 nM; in assay [28] it was 108 nM; in assay [29] it was 1.87 nM; in [30], 946 nM. Besides, the “EC50, CellTox Green” value in assay [31] worked out at 1.94 nM; in assay [5], 1.63 nM; in [32], 3.14 nM; in assay [33], 57.8 nM; in assay [34], 5.12 nM. The “EC50, CellTiter-Glo” value was 2.47 nM in assay [16]; 1.37 nM in assay [17]; 3.29 nM in [40]; 1.17 nM in [18]; 2.14 nM in assay [12]; 7.15 nM in assay [41]. Also, the “EC50, CellTiter-Glo” value in assay [42] is 1.46 nM; in assay [19], 1.52 nM; in assay [20], 8.31 nM; in assay [21], 0.69 nM; in assay [43] it was 5.5 nM; in [3] it was 5.86 nM. The “EC50, CellTiter-Glo” value in [44] was 1.04 nM; in assay [13], 1.03 nM; in assay [14], 12.2 nM; in assay [45] it was 3.3 nM.
